Test results reported in patent US12691143B2, “Method for treating cancer” (priority 2020, dated 2026).
Entries after “also recorded” stand apart in the source; their conditions may differ.

What was measured:
[1] = tested on: KU19-19 cells; assay: Irofulven sensitivity after siRNA depletion of NER genes; assay type: cell-based
Excerpt: (§1) Bladder cancer cell lines were purchased from ATCC. The KE1 bladder cancer cell line is a derivative of KU19-19 in which an ERCC2 T484 mutation has been introduced by CRISPR/Cas9 gene editing as previously described (6). The MDA-MB-468 breast cancer cell line and its ERCC4-complemented derivative have been previously described (35). Small interfering RNAs (siRNAs) targeting specific NER genes as well as a non-targeting siRNA (siNTC) were purchased from Integrated DNA Technologies Inc. (Coralville, IA, USA; see Table 9 for sequences). Cells were seeded in 6-well plates and grown to 50% confluency. A transfection mixture containing siRNA diluted to a final concentration of 30 nM in Opti-MEM media containing Lipofectamine 3000 (Life Technologies; Carlsbad, CA) was then added to cells. After 48 hours, cells were trypsinized and re-aliquoted to separate wells and transfected with 15 nM siRNA for 24 hours immediately prior to viability assays performed as described below. […]
(§2) Cells were seeded in either 96-well (5,000 cells/well) or 24-well (20,000 cells/well) plates. […] Plates were scanned using a luminescence microplate reader (BioTek). […]

[2] = tested on: KE1 xenografts (NER-deficient); assay: Xenograft study; assay type: in vivo, mice
Procedure: (§3) Six week old female athymic nude mice, NU/J (Stock No: 002019) were purchased from Jackson Laboratory (Bar Harbor, ME) and housed at the Dana-Farber Cancer Institute Animal Resources Facility. All animal experiments were performed in accordance with an IACUC-approved protocol. At 7-10 weeks of age, mice were anesthetized with isoflurane and subcutaneously injected on the left flank with 3 million KE1 or 1 million KU19-19 cells mixed 1:1 with Matrigel (BD Biosciences; Mississauga, ON) in PBS. Tumor size was measured with a digital caliper twice weekly and calculated using the formula: (L×W^2)×½. Drug treatments were administered when the average tumor volume reached a minimum of 100 mm^3. Irofulven was prepared in PBS to a stock concentration of 200 μg/ml and was delivered intraperitoneally (IP) twice weekly at doses of 250 μg/kg, 500 μg/kg or 1 mg/kg for a total of 5 injections or until the tumor reached a pre-specified protocol endpoint. Control mice were injected with PBS alone. At the end of the experiment, mice were sacrificed and tumors were excised for tumor weight measurements and imaging.
(§4) Six week old female athymic nude mice, NU/J (Stock No: 002019) were purchased from Jackson Laboratory (Bar Harbor, ME) and housed at the Dana-Farber Cancer Institute Animal Resources Facility. All animal experiments were performed in accordance with an IACUC-approved protocol. At 7-10 weeks of age, mice were anesthetized with isoflurane and subcutaneously injected on the left flank with 3 million KE1 or 1 million KU19-19 cells mixed 1:1 with Matrigel (BD Biosciences; Mississauga, ON) in PBS. Tumor size was measured with a digital caliper twice weekly and calculated using the formula:
(§5) [formula] Drug treatments were administered when the average tumor volume reached a minimum of 100 mm^3. Irofulven was prepared in PBS to a stock concentration of 200 μg/ml and was delivered intraperitoneally (IP) twice weekly at doses of 250 μg/kg, 500 μg/kg or 1 mg/kg for a total of 5 injections or until the tumor reached a pre-specified protocol endpoint. Control mice were injected with PBS alone. At the end of the experiment, mice were sacrificed and tumors were excised for tumor weight measurements and imaging.

[3] = tested on: KU19-19 xenografts (NER-proficient); assay: Xenograft study; assay type: in vivo, mice; details: 1 mg/kg irofulven
Procedure: as §3, §4, §5

[4] = tested on: KE1 bladder cancer cell line (ERCC2-mutated derivative of KU19-19, NER-deficient); assay: In vitro drug sensitivity assay (CellTiter-Glo); assay type: cell-based; details: NER-deficient KE1, compared with isogenic KU19-19; 48 to 72 hours
Excerpt: as §1, §2

[5] = tested on: KU19-19 bladder cancer cell line (NER-proficient); assay: In vitro drug sensitivity assay (CellTiter-Glo); assay type: cell-based; details: NER-proficient KU19-19; 48 to 72 hours
Procedure: Cells were seeded in either 96-well (5,000 cells/well) or 24-well (20,000 cells/well) plates. The following day, irofulven and cisplatin stock solutions were serially diluted in media and added to cells. After 48 to 72 hours, media was removed and CellTiter-Glo® reagent (Promega; Madison, WI) was added. Plates were scanned using a luminescence microplate reader (BioTek). Survival at each drug concentration was plotted as a percentage of survival in drug-free media with error bars representing the standard deviation of at least three experiments.

Structure (SMILES): CC1=C(CO)C2=C(C)C3(CC3)[C@@](C)(O)C(=O)C2=C1 [irofulven]
- irofulven sensitivity after gene depletion ([1]; siRNA depletion of GG-NER gene DDB2): minimal impact
- irofulven sensitivity after gene depletion ([1]; siRNA depletion of TC-NER gene ERCC6 or common NER gene ERCC3): significantly higher irofulven sensitivity; also recorded: sufficient to increase irofulven sensitivity
- tumor dose response ([2]; 250 μg/kg, 500 μg/kg or 1 mg/kg IP twice weekly): strong irofulven dose response
- tumor response (tumor volume) ([2]; 1 mg/kg IP twice weekly, total of five doses): near complete tumor regression
- xenograft weights ([2]; irofulven-treated vs untreated mice): significantly lower
- tumor response [3]: no response; also recorded: did not show response
- drug sensitivity (survival as percentage of drug-free media) [4]: significantly more sensitive; also recorded: highly sensitive; also recorded: increased sensitivity
- drug sensitivity (survival as percentage of drug-free media) [5]: minimal sensitivity
